Test results published in EP4620954A1, “CDK2 INHIBITOR, PREPARATION METHOD THEREFOR, AND USE THEREOF” (Shandong Luye Pharmaceutical Co., Ltd., priority 2022, dated 2024).
Read-outs that look alike come from different tables or passages of the source.

What was measured:
[1] = Permeability and transporter substrate evaluation, Caco-2 monolayer; type: in vitro ADME; conditions: human, Caco-2, Table 4 experimental system, Caco-2, 2.00 µM
Procedure: (§1) Cell: Caco-2 cells Instrument: water purification equipment, ELGA LabWate; biosafety cabinet, Nuaire; thermostatic CO2 incubator, Thermo; microplate reader, PerkinElmer; LC-MS/MS, AB SCIEX. Method: The purpose of this study was to determine the two-way permeability of the compounds and evaluate whether they are effluxed and transported by P-glycoprotein (P-gp) using a Caco-2 monolayer cell model. In the experiment, Caco-2 cells were seeded into a 96-well cell plate and cultured for 24 consecutive days for the transport experiment. The compounds were administered bidirectionally at a concentration of 2.00 µM, with or without verapamil. After 120 min of incubation, the samples at the apical end A and the basal end B were collected. The content of the test samples in each sample was measured using the liquid chromatography-tandem mass spectrometry (LC-MS/MS) method. The apparent permeability coefficient and the efflux rate were calculated. Two experimental systems were used successively in this part, with the reference compound (PF-07104091) included. Table 4. Permeability test results

P-glycoprotein (P-gp) = assay: as above; type: in vitro ADME; conditions: human, Caco-2, Table 4 experimental system, Caco-2, 2.00 µM
Procedure: as §1

[2] = In-vitro liver microsomal stability, human; type: in vitro ADME; conditions: human liver microsomes 0.5 mg/mL, 1 µM, NADPH 1 mM, 37 °C
Procedure: (§2) Method: The metabolic stability of test substances was evaluated by using human, dog, and SD rat liver microsomes. The test substances were incubated with liver microsomes from different species and NADPH in a water bath at 37 °C. In the incubation system, the final concentration of the test or control sample was 1 µM, the final concentration of liver microsomes was 0.5 mg/mL, the final concentration of NADPH was 1 mM, and the final concentration of MgCl2 was 3 mM. At designated time points (5 min, 10 min, 20 min, 30 min, and 60 min), the reaction was stopped by adding a cold acetonitrile solution containing tolbutamide (at a concentration of 200 ng/mL) as an internal standard. For the 0-min sample, the stop solution was added before the addition of the NADPH working solution. Testosterone and dextromethorphan were used as positive control samples in the same conditions to assess the stability and reliability of the system. After sample pretreatment, semiquantitative analysis was performed using the LC-MS/MS method. The retention times of the analytes and internal standard, the acquisition of chromatograms and the integration of chromatograms were processed using software Analyst (AB Sciex, Framingham, Massachusetts, USA). The remaining percentage of the test samples after 60 min of incubation was calculated, and the test results are shown in Table 3. Table 3. Test data for the compounds of the present disclosure in human, dog, and rat liver microsomes

[3] = In-vitro liver microsomal stability, dog; type: in vitro ADME; conditions: dog liver microsomes 0.5 mg/mL, 1 µM, NADPH 1 mM, 37 °C
Procedure: as §2

HCT116 cells = assay: Antagonistic effect assay against HCT116 cell proliferation (CellTitle-Glo); type: cell-based; conditions: Homo sapiens, HCT-116, 72 h treatment, 0.01-10.00 µM, read-out: Antiproliferative IC50
Procedure: Frozen HCT116 cells were rapidly transferred from liquid nitrogen to a 37 °C water bath and rapidly shaken for thawing. The cell suspension was transferred to a 15 mL centrifuge tube and centrifuged at 1500 rpm for 5 min, and the supernatant was discarded. The cell pellet was resuspended in RPMI-1640 complete medium (containing 10% fetal bovine serum and 1% penicillin/streptomycin) and transferred to a cell culture dish containing 10 mL of medium. The cells were cultured in an incubator at 37 °C/5% CO2. The cells were passaged after adhesion to the wall.
HCT116 cells in the logarithmic growth phase and in good condition were taken, digested with a trypsin solution, resuspended in a certain amount of RPMI-1640 complete medium to form a single-cell suspension, counted on a cell counting plate, and seeded into a 96-well white plate at a density of 800 cells/well. The plate was left to stand for 5 min and then incubated in an incubator at 37 °C/5% CO2 overnight. The next day, the cells were treated with the compound at different concentrations, and the control group was treated with DMSO at the corresponding concentration. The compound, dissolved in DMSO, was diluted in RPMI-1640 complete medium at a ratio of 1:1000 to obtain final concentrations of 10.00 µM, 3.33 µM, 1.11 µM, 0.37 µM, 0.12 µM, 0.04 µM, and 0.01 µM. Each group was set up with 3 replicate wells, and 100 µL of the treatment solution was added to each well. The plate was incubated in an incubator at 37 °C/5% CO2 for 72 h.
After 72 h of treatment, the CellTitle-Glo assay was performed. 100 µL of CellTitle-Glo solution was added to each well of the control and treatment groups. The plate was mixed on an oscillator for 2 min to induce cell lysis. The 96-well plate was incubated at room temperature for 10 min to stabilize the luminescence signal value. The luminescence signal was measured using a microplate reader. The DMSO-treated cell group was used as the control group, and 50% inhibitory concentration (IC50) was calculated according to the median effect equation as follows: [formula]
The IC50 values of the compounds were calculated using GraphPad Prism nonlinear fitting equation. Table 2. Results for the inhibitory effect of the compounds of the present disclosure on HCT116 cell proliferation

[4] = In-vitro liver microsomal stability, rat; type: in vitro ADME; conditions: SD rat liver microsomes 0.5 mg/mL, 1 µM, NADPH 1 mM, 37 °C
Procedure: as §2

CDK2/Cyclin E1 = molecular target: T1, CDK2/Cyclin E1 (Homo sapiens, UniProt P24941); assay: CDK2 kinase antagonistic activity assay (TR-FRET); type: biochemical; conditions: TR-FRET; peptide mix containing 10 µM ATP; 90 min at 23 °C; read-out: CDK2/Cyclin E1 IC50
T1 construct: purchased Invitrogen PV6296
Procedure: (§3) Compounds were dissolved in DMSO and serially diluted 3-fold to generate 11 concentrations. 100 nL of each compound was added to 384-well plates, followed by the addition of 5 µL of 2× CDK2/Cyclin E1 or CDK1/Cyclin B enzyme mixed solution. 5 µL of buffer (50 mM Hepes (pH 7.5), 10 mM MgCl2, 1 mM EDTA, 0.01% Brij-35, 2 mM DTT (prepared freshly)) was added to the complete inhibition control wells. The plates were centrifuged at 1000 rpm for 30 s and incubated at 23 °C for 15 min. Then, 5 µL of 2× MLight-MBP peptide (containing 10 µM ATP) was added to each well of each assay plate. The plates were centrifuged again at 1000 rpm for 30 s and incubated at 23 °C for 90 min.
After the incubation was completed, the reaction was stopped with a detection buffer containing 15 mM EDTA and 2 nM Eu-anti-P-MBP antibody. After centrifugation at 1000 rpm for about 1 min, the plates were incubated at 23 °C for 60 min and read on Perkin Elmer Envision. The TR-FRET ratio (value at 665 nm/value at 615 nm) was automatically calculated by Envision.
(§4) The IC50 values of the compounds were calculated using GraphPad Prism nonlinear fitting equation. Table 1. Kinase activity assay

CDK1/Cyclin B = molecular target: T2, CDK1/Cyclin B (Homo sapiens, UniProt P06493); assay: CDK1 kinase activity assay (TR-FRET); type: biochemical
T2 construct: purchased Invitrogen PR4768C
T2 sequence (P06493 whole entry): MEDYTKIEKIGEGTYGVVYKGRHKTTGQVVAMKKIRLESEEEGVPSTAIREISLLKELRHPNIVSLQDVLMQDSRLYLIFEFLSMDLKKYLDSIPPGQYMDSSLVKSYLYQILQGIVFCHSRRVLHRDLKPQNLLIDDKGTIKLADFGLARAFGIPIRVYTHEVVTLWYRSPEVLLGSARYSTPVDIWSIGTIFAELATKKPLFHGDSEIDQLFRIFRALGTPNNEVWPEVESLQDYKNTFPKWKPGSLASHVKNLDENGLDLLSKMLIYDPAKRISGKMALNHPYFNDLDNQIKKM
T2 sequence (P14635 whole entry partner): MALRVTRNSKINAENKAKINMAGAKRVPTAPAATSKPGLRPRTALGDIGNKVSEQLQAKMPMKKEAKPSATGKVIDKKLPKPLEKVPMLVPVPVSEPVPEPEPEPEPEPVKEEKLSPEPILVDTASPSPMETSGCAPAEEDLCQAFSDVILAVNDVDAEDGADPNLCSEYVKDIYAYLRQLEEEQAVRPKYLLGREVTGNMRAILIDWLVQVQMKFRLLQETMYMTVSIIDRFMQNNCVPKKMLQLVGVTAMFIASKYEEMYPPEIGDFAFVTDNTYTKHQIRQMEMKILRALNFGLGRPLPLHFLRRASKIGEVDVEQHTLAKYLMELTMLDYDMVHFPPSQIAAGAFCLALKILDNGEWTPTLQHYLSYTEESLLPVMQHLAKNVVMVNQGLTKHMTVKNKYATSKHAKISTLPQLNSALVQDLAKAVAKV
Procedure: as §3
After the incubation was completed, the reaction was stopped with a detection buffer containing 15 mM EDTA and 2 nM Eu-anti-P-MBP antibody. After centrifugation at 1000 rpm for about 1 min, the plates were incubated at 23 °C for 60 min and read on Perkin Elmer Envision.
as §4

[5] = TR-FRET, peptide mix containing 10 µM ATP, 90 min at 23 °C, read-out: CDK1/Cyclin B1 IC50

COCc1cc(C(=O)Nc2cc([C@H]3CC[C@@H](OC(=O)NC45CC6CC(CC(C6)C4)C5)C3)[nH]n2)n(C)n1 [Compound 6] showed a Papp A→B at 120 min, 2 µM [1] of 0.54 ×10⁻⁶ cm/s, a Papp B→A at 120 min, 2 µM [1] of 26.3 ×10⁻⁶ cm/s and an efflux ratio at 120 min, 2 µM (P-glycoprotein (P-gp)) of 48.7. The “Remaining amount% at 60 min Human” value [2] was 11.0%, the “Remaining amount% at 60 min Dog” value [3] was 30.3% and the IC50 (HCT116 cells) was 2640 nM. For the same compound, the “Remaining amount% at 60 min Rat” value [4] was 1.80%, the IC50 (CDK2/Cyclin E1) was 0.95 nM and the IC50 (CDK1/Cyclin B) was 78.4 nM.
COCc1cc(C(=O)Nc2cc([C@H]3CC[C@@H](OC(=O)NC(C)C#N)C3)[nH]n2)n(C)n1 (stereo partly drawn) [Compound 1] gave a Papp A→B at 120 min, 2 µM [1] of under 0.48 ×10⁻⁶ cm/s, a Papp B→A at 120 min, 2 µM [1] of 19.3 ×10⁻⁶ cm/s and an efflux ratio at 120 min, 2 µM (P-glycoprotein (P-gp)) of over 40.2. For the same compound, the “Remaining amount% at 60 min Human” value [2] was 80.3%, the “Remaining amount% at 60 min Dog” value [3] was 92.0% and the IC50 (HCT116 cells) was 3660 nM. For the same compound, the “Remaining amount% at 60 min Rat” value [4] was 85.0%, the IC50 (CDK2/Cyclin E1) was 2.24 nM and the IC50 (CDK1/Cyclin B; [5]) was 78.2 nM.
For CC(C)NC(=O)O[C@@H]1CC[C@H](c2cc(NC(=O)c3cc(CS(C)(=O)=O)nn3C)n[nH]2)C1 [Compound 7], the Papp A→B at 120 min, 2 µM [1] was under 0.26 ×10⁻⁶ cm/s, the Papp B→A at 120 min, 2 µM [1] was 14.4 ×10⁻⁶ cm/s and the efflux ratio at 120 min, 2 µM (P-glycoprotein (P-gp)) was over 55.4. The “Remaining amount% at 60 min Human” value [2] was 93.2%, the “Remaining amount% at 60 min Dog” value [3] was 101% and the IC50 (HCT116 cells) was 2250 nM. For the same compound, the “Remaining amount% at 60 min Rat” value [4] was 101%, the IC50 (CDK2/Cyclin E1) was 0.64 nM and the IC50 (CDK1/Cyclin B; [5]) was 90 nM.
With COCc1cc(C(=O)Nc2cc([C@H]3CC[C@@H](OC(=O)N(C)C4CCC(=C(F)F)CC4)C3)[nH]n2)n(C)n1 (stereo partly drawn) [Compound 2] the Papp A→B at 120 min, 2 µM [1] was 0.218 ×10⁻⁶ cm/s, the Papp B→A at 120 min, 2 µM [1] was 43.4 ×10⁻⁶ cm/s and the efflux ratio at 120 min, 2 µM (P-glycoprotein (P-gp)) was 199. The “Remaining amount% at 60 min Human” value [2] was 5.38%, the “Remaining amount% at 60 min Dog” value [3] was 12.7% and the IC50 (HCT116 cells) was 2470 nM. For the same compound, the “Remaining amount% at 60 min Rat” value [4] was 3.87%, the IC50 (CDK2/Cyclin E1) was 5.15 nM and the IC50 (CDK1/Cyclin B; [5]) was 42.5 nM.
With CC(C)NC(=O)O[C@@H]1CC[C@H](c2cc(Nc3ccc(N4CCN(C)CC4)cc3)n[nH]2)C1 [Compound 9] the Papp A→B at 120 min, 2 µM [1] was 0.52 ×10⁻⁶ cm/s, the Papp B→A at 120 min, 2 µM [1] was 43.8 ×10⁻⁶ cm/s and the efflux ratio at 120 min, 2 µM (P-glycoprotein (P-gp)) was 84.2. The “Remaining amount% at 60 min Human” value [2] was 93.2%, the “Remaining amount% at 60 min Dog” value [3] was 7.34% and the IC50 (HCT116 cells) was 2620 nM. For the same compound, the “Remaining amount% at 60 min Rat” value [4] was 27.7%, the IC50 (CDK2/Cyclin E1) was 4.38 nM and the IC50 (CDK1/Cyclin B; [5]) was 138 nM.
With Cn1nc(CS(C)(=O)=O)cc1C(=O)Nc1cc([C@@H]2C[C@H](OC(=O)N3CCC3(C)C)CO2)[nH]n1 [Compound 27] the “Remaining amount% at 60 min Human” value [2] was 91.3%, the “Remaining amount% at 60 min Dog” value [3] was 96.7% and the IC50 (HCT116 cells) was 3010 nM. The “Remaining amount% at 60 min Rat” value [4] was 81.2%, the IC50 (CDK2/Cyclin E1) was 9.32 nM and the IC50 (CDK1/Cyclin B; [5]) was 54.2 nM.
COCc1cc(C(=O)Nc2cc([C@H]3CC[C@@H](OC(=O)NCC=C(F)F)C3)[nH]n2)n(C)n1 [Compound 3] showed a Papp A→B at 120 min, 2 µM [1] of 0.218 ×10⁻⁶ cm/s, a Papp B→A at 120 min, 2 µM [1] of 32.8 ×10⁻⁶ cm/s and an efflux ratio at 120 min, 2 µM (P-glycoprotein (P-gp)) of 150. For the same compound, the “Remaining amount% at 60 min Human” value [2] was 90.9%, the “Remaining amount% at 60 min Dog” value [3] was 86.7% and the IC50 (HCT116 cells) was 2090 nM. For the same compound, the “Remaining amount% at 60 min Rat” value [4] was 74.6%, the IC50 (CDK2/Cyclin E1) was 1.22 nM and the IC50 (CDK1/Cyclin B; [5]) was 78.2 nM.
C#CC(C)NC(=O)O[C@@H]1CC[C@H](c2cc(NC(=O)c3cc(COC)nn3C)n[nH]2)C1 (stereo partly drawn) [Compound 4] showed a Papp A→B at 120 min, 2 µM [1] of 0.0791 ×10⁻⁶ cm/s, a Papp B→A at 120 min, 2 µM [1] of 30.8 ×10⁻⁶ cm/s and an efflux ratio at 120 min, 2 µM (P-glycoprotein (P-gp)) of 390. For the same compound, the “Remaining amount% at 60 min Human” value [2] was 93.5%, the “Remaining amount% at 60 min Dog” value [3] was 77.9% and the IC50 (HCT116 cells) was 2340 nM. For the same compound, the “Remaining amount% at 60 min Rat” value [4] was 77.9%, the IC50 (CDK2/Cyclin E1) was 2.58 nM and the IC50 (CDK1/Cyclin B; [5]) was 460 nM.
